Test results: PMC10935026 (Acta Pharmaceutica Sinica. B, 2023)

Legend:
GCGR = GCGR (Homo sapiens, UniProt P47871); assay: GCGR activation CRE-Luc reporter assay in vitro; type: cell-based
human serum albumin = human serum albumin (human, UniProt P02768 25-609); assay: ITC

Chain of GCGR (P47871 26-477): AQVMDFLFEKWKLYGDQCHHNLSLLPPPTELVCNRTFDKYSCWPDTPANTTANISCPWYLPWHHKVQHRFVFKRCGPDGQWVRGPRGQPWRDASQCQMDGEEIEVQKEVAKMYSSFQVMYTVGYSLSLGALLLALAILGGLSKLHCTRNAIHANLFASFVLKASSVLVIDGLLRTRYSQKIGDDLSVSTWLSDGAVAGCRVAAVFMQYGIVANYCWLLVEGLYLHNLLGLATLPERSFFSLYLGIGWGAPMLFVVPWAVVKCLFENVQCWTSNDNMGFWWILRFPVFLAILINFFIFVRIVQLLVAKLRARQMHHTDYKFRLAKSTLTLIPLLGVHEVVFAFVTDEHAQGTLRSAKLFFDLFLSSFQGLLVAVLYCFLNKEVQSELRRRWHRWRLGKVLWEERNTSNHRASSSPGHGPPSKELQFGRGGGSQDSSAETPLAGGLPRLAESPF

Kd (human serum albumin) [µM]	Molecule	EC50 (GCGR) [µM]
	CCCCCCCCCCCCCCCC(=O)N[C@@H](CCC(=O)NCCCC[C@H](NC(=O)[C@H](C)NC(=O)[C@H](C)NC(=O)[C@H](CCC(N)=O)NC(=O)CNC(=O)[C@H](CCC(=O)O)NC(=O)[C@H](CC(C)C)NC(=O)[C@H](Cc1ccc(O)cc1)NC(=O)[C@H](CO)NC(=O)[C@H](CO)NC(=O)[C@@H](NC(=O)[C@H](CC(=O)O)NC(=O)[C@H](CO)NC(=O)[C@@H](NC(=O)[C@H](Cc1ccccc1)NC(=O)[C@@H](NC(=O)CNC(=O)[C@H](CCC(=O)O)NC(=O)[C@H](C)NC(=O)[C@@H](N)Cc1cnc[nH]1)[C@@H](C)O)[C@@H](C)O)C(C)C)C(=O)N[C@@H](CCC(=O)O)C(=O)N[C@@H](Cc1ccccc1)C(=O)N[C@H](C(=O)N[C@@H](C)C(=O)N[C@@H](Cc1c[nH]c2ccccc12)C(=O)N[C@@H](CC(C)C)C(=O)N[C@H](C(=O)N[C@@H](CCCNC(=N)N)C(=O)NCC(=O)N[C@@H](CCCNC(=N)N)C(=O)NCC(=O)O)C(C)C)[C@@H](C)CC)C(=O)O [Liraglutide, liraglutide]	> 1
805	GGSGSG [6-amino acid linker GGSGSG]	
